The source made the active and inactive calls.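 Rule for the calls: active = compounds giving half or more protection of infected cells from virus-caused growth loss, again on retest; inactive = the rest.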
Test system: CEM cells HIV-1 protection, formazan growth assay
Experiment: NCI AIDS Antiviral Assay
Conditions: for IC50: measured here: growth of uninfected CEM cells
Summary of the method: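 CEM (human) cells, HIV-1 infected vs uninfected, 5-point dosing, formazan growth read-out. Retest threshold 50% protection.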

SMILES | EC50 [µM] | IC50 [µM] | outcome
O=C(c1ccc(Cl)cc1Cl)C1[C@H]2C(=O)N(c3ccc(Cc4ccc(N5C(=O)[C@@H]6ON(c7ccccc7)C(C(=O)c7ccc(Cl)cc7Cl)[C@@H]6C5=O)cc4)cc3)C(=O)[C@H]2ON1c1ccccc1 (stereo partly specified) | > 38 | > 38 | –
CN(/N=C\c1ccc2ccccc2c1)C1=NCCCCN1 | > 200 | 28.8 | –
Cc1c2c(n3c(nc4ccccc43)c1C#N)SCC2 | > 200 | > 200 | –
COC1CC(C)([N+](=O)[O-])C(O)C(C)O1 (stereo unspecified) | > 200 | > 200 | –
O=P(N1CC1)(N1CC1)N1CC2CCC(CC2)C1 | > 200 | 1.62 | –
COc1cc(/C=C(\C)[N+](=O)[O-])cc(OC)c1 | > 200 | 3.39 | –
O=C1C=CC2O[C@H](c3ccccc3)[C@H](O)C2O1 (stereo partly specified) | > 1070 | 5.37 | –
O=C(O)c1cc(S(=O)(=O)Nc2cc(Cc3cc(NS(=O)(=O)c4ccc(O)c(C(=O)O)c4)c(O)c(C(=O)O)c3)cc(C(=O)O)c2O)ccc1O | > 100 | > 100 | –
CN1C2=C(CC3=C1CC(C)(C)CC3=O)C(=O)CC(C)(C)C2 | > 100 | > 100 | –
Cc1ccc(Nc2nc(NS(=O)(=O)c3cc(C)c(Cl)cc3S)n[nH]2)cc1 | > 191 | 178 | –
O=C(Nc1ccc(S(=O)(=O)N[C@@H](C(=O)O)c2ccccc2)cc1)c1ccc(F)cc1 | – | – | inactive
CCOC(=O)CC1(C)SCCN1C(=O)OCC (stereo unspecified) | > 200 | > 200 | –
O=[P+](O)c1cc2ccccc2c2ccccc12 | – | – | inactive
OCc1c2c(cc3c1CC1(C3)Cc3cc4c(c(CO)c3C1)CCC4)CCC2 | > 200 | 8.13 | –
CN1COCN=C1NC#N | > 631 | > 631 | –
CNc1ccc(Cl)cc1S(=O)(=O)c1ccccc1 | 6.03 | > 200 | –
N#C/C(=C\c1ccc(O)c(O)c1)C(=O)NCCCCCNC(=O)/C(C#N)=C/c1ccc(O)c(O)c1 | > 200 | 11.5 | –
COc1ccc(CC2C(=O)NC(C)C(=O)N(C)C3C(=O)N(C)C(Cc4ccc(O)c(c4)Oc4ccc(cc4)C3O)C(=O)NC(C)C(=O)NC(C)C(=O)N2C)cc1 (stereo unspecified) | > 0.2 | 0.0631 | –
[N-]=[N+]=C1C(=O)NCN=C1c1ccccc1 | > 339 | > 339 | –
CCOP(=O)(OCC)/C(C#N)=C/c1ccc[nH]1 | > 977 | 575 | –
OC1c2ccccc2[C@@H]2[C@H]1[C@@H](c1ccccc1)C1(Cc3ccccc3C1O)[C@H]2c1ccccc1 (stereo partly specified) | > 200 | 9.12 | –
N#C/C(=C\NC(=S)N=Nc1c(O)[nH]c2ccccc12)C(=O)c1ccc2ccccc2c1 | > 200 | 120 | –

SMILES | EC50 [µM] | IC50 [µM] | outcome
CCOC(=O)/C(C=Nc1c(C)n(C)n(-c2ccccc2)c1=O)=C(/C)O | > 200 | > 200 | –
Cc1n[nH]c(=O)n1N1C(=O)CCCC1=O | > 200 | > 200 | –
CC(=O)OC12c3ccccc3C(c3ccccc31)C1C(=O)N(Nc3ccccc3)C(=O)C12 (stereo unspecified) | > 200 | > 200 | –
COc1ccccc1C1CC(c2ccccc2)=Nc2ccccc2S1 (stereo unspecified) | > 42.7 | 8.13 | –
CCOC(=O)c1cc(-c2ccc3ccccc3n2)c(O)c2cc3ccccc3nc12 | > 200 | > 200 | –
FC(F)(F)c1ccc(C2SCc3nc4ccccc4n32)cc1 (stereo unspecified) | – | – | inactive
C/C(=N\NC(=S)N1CCN(c2ccccn2)CC1)c1cccc(C)n1 | > 42.7 | 0.0155 | –
COC(=O)c1ccccc1/C=C1\Cc2c(C)cc(C)cc2C1=O | – | – | inactive
O=C(Sc1nnnn1-c1ccccc1)Sc1nnnn1-c1ccccc1 | 97.7 | 178 | –
CC#N.CC#N.COC(=O)[C@@H]1COC(=O)[N-]1.COC(=O)[C@@H]1COC(=O)[N-]1.COC(=O)[C@@H]1COC(=O)[N-]1.COC(=O)[C@@H]1COC(=O)[N-]1.[Rh+2].[Rh+2] | > 200 | > 200 | –
OCC[P+](c1ccccc1)(c1ccccc1)c1ccccc1 | > 200 | 12.3 | –
O=C(O)/C(Cl)=C(\Cl)C(=O)Nc1ccccc1 | – | – | inactive
Cc1cc2ccccc2c[n+]1CC(=O)CC([O-])(C(F)(F)F)C(F)(F)F | > 200 | 95.5 | –
CCCCN(CCCC)/N=C/c1c2c(O)c3c(O)c(C)c4c(c3c1O)C(=O)C(C)(O/C=C/C(OC)C(C)C(OC(C)=O)C(C)C(O)C(C)C(O)C(C)/C=C/C=C(C)C(=O)N2)O4 (stereo unspecified) | > 200 | 9.12 | –
COC1CC2CCC(C)[C@](O)(O2)C(=O)C(=O)N2CCCCC2C(=O)OC(C(C)CC2CCC(O)C(OC)C2)CC(=O)C(C)C=C(C)C(OC(=O)CN(C)C)C(OC)C(=O)C(C)CC(C)/C=C/C=C/C=C\1C (stereo partly specified) | > 200 | 7.24 | –
c1ccc(C[n+]2ccc3c(c2)CCCC3)cc1 | > 200 | 40.7 | –
CC=CCOc1cc(NC(=S)OC(C)C)ccc1Cl (mixture of isomers) | 0.126 | 24 | –
Cc1cc(O)c2c(c1)C(O)(c1ccc3c(c1O)C(=O)c1c(O)cc(C)cc1C3(O)C1OC(CO)C(O)C(O)C1O)c1cccc(O)c1C2=O (stereo unspecified) | – | – | inactive
O=C(O)C1(Cc2ccc3c(c2)CCC3)Cc2ccccc2C1 | > 200 | 81.3 | –
COc1cc2c(cc1OC)c1c(OC)c(OC)cc3c1c1c2sc(=S)n1CC3 | – | – | inactive
COc1cc(C2c3cccc4cccc(c34)C3CCC(=O)N32)cc(OC)c1O (stereo unspecified) | > 50.1 | 1.32 | –
CC1=C(c2cc(C(=O)Nc3cccc(Cl)c3)nc(NC#N)n2)Sc2ccccc2N1 | – | – | inactive

SMILES | EC50 [µM] | IC50 [µM] | outcome
CCCCCCC(=O)N1SC(NC(=O)OC)=Nc2ccccc21 | > 77.6 | 10.2 | –
CC(=O)OCCSSCCOC(C)=O | > 200 | 89.1 | –
C/C(=N\Oc1cc(Cl)ncn1)c1ccccn1 | > 200 | 30.2 | –
CCc1cc2c(c3c1CCC3=O)CC1(Cc3ccc(C)cc3C1)C2 (stereo unspecified) | > 200 | 135 | –
Cc1ccc(/C=C2\NC(=S)N(CN3CCOCC3)C2=O)cc1 | > 200 | 45.7 | –
Cc1c(C)c2c(c(N)c1C#N)C(=O)N(CCc1ccccc1)C2=O | > 200 | 170 | –
O=C1/C(=C/c2ccc(Cl)c(Cl)c2)CNC/C1=C\c1ccc(Cl)c(Cl)c1 | > 16.2 | 8.71 | –
COC(=O)C1CCC(=O)C(Sc2ccccc2)C1 (stereo unspecified) | > 97.7 | 43.7 | –
Cc1nccn1Cc1c(N)nc(N)[nH]c1=O | > 200 | > 200 | –
O=C(O)COc1c2occc2cc2ccc(=O)oc12 | > 347 | > 347 | –
COC1(C)CC2N(C(=O)c3ccccc3)N=C(c3ccccc3)CC2(C)O1 (stereo unspecified) | > 100 | > 100 | –
NC12CC3CC(C1)CC(Cl)(C3)C2 | > 1120 | > 1120 | –
CC1CCCN2C(=O)CN(C3CCCCC3)CC(=O)N12 (stereo unspecified) | > 200 | > 200 | –
COc1cccc(-c2nc(-c3cnccn3)n(Cc3ccccc3)n2)c1 | > 200 | > 200 | –
ClC1(Cl)C2(Cl)C3(Cl)C4C2(Cl)C2(Cl)C4(Cl)C3(Cl)C12Cl (stereo unspecified) | > 200 | 33.1 | –
COc1cc2c(cc1O)CC1c3c(cc(O)c(OC)c3-2)CCN1C (stereo unspecified) | > 200 | 69.2 | –
OC/C=C/c1ccc(Cl)cc1 | – | – | inactive
C[C@H]1[C@H](C)N1CC(O)Cn1ccnc1[N+](=O)[O-] (stereo partly specified) | > 200 | > 200 | –
C[C@@]1(O)C2C3CC4C5C3C1[C@](O)(C42)[C@H]5Br (stereo partly specified) | – | – | inactive
CSC1=N/C(=C\c2ccccc2)C(=O)N1CN1CCCCC1 | > 200 | 115 | –
C[N+]1(CCCC(O)CC[N+]2(C)CCCC2)CCCC1 (stereo unspecified) | – | – | inactive
CCOC(=O)P(=O)(O)c1ccc(N(C)Cc2ccccc2)cc1 | > 200 | > 200 | –

SMILES | EC50 [µM] | IC50 [µM] | outcome
CC(=O)Nc1ccc2cc(C)c(=O)[nH]c2n1 | > 200 | > 200 | –
CCOC(=O)/C(C1=N[C@H](C(=O)OCC)CS1)=C(\C)O | > 631 | > 631 | –
Cc1ccc(/C=N\NC2c3cc(Cl)ccc3Nc3nc(=O)[nH]c(C)c32)cc1 (stereo unspecified) | > 200 | 120 | –
Cc1ccc2nc(C(C)C)c(=O)[nH]c2c1 | > 200 | > 200 | –
Cc1cc(N(CCC#N)CCC#N)ccc1/C=C1N=C(/C=C\c2ccccc2)OC\1=O | > 17.8 | > 17.8 | –
CCOC(=O)C/C(O)=C(/C=N/C(=S)NNC(C)=O)C(=O)OCC | > 200 | > 200 | –
O=S(=O)(c1ccccc1)N1CC2C3C=CC(C3)C2C1 (stereo unspecified) | > 200 | 145 | –
COc1ccc(P2(=S)Oc3ccc(C(c4ccccc4)(c4ccccc4)c4ccccc4)cc3O2)cc1 (stereo unspecified) | – | – | inactive
C/C(COc1ccccc1)=N\NC(N)=S | – | – | inactive
C=CC(=O)Nc1ccccc1CC(c1c[nH]c2ccccc12)c1c[nH]c2ccccc12 | > 36.3 | 25.7 | –
O=c1[nH]c(=O)n(C2OC(CO)C(O)C2O)cc1OCCCc1ccccc1 (stereo unspecified) | > 200 | > 200 | –
Cc1nc2ccccc2c(C(=O)NO)[n+]1[O-] | > 200 | > 200 | –
O=[N+]([O-])c1c(Cl)ccc2nsnc12 | > 316 | 2.04 | –
CN1CCCC2[C@@H]3CCC4c5nonc5CC[C@]4(C)C3CC[C@@]21C (stereo partly specified) | > 55 | > 55 | –
O=c1oc2cc(O)ccc2c2[nH]c3cc(O)ccc3c12 | > 97.7 | 17 | –
Clc1cc(Br)c2c3c(c(Br)cc(Cl)c13)C(Br)=C2Br | > 200 | 20 | –
CN=C(c1ccc(NC(=O)c2ccc(C(=O)Nc3ccc(C(=NC)N4CCOCC4)cc3)c(Cl)c2)cc1)N1CCOCC1 | > 200 | > 200 | –
N#Cc1nc(-c2ccco2)oc1N | > 200 | > 200 | –
CCCNCC(=O)O[C@]1(CC)C(=O)OCc2c1cc1n(c2=O)Cc2cc3ccccc3nc2-1 | > 10 | 0.0525 | –
Cc1ccc(SC2C(C)(C)N(C(C)C)P2(=O)N(C(C)C)C(C)C)cc1 (stereo unspecified) | > 9.77 | > 9.77 | –
C=CCNC(=S)NNC(=S)NCC=C | > 200 | 23.4 | –

Reference: PubChem BioAssay AID179 (DTP/NCI, 2004)
